Assay results: patent US20220241249A1, “PHARMACEUTICAL COMPOSITION AND KIT CONTAINING NOVEL PENAM DERIVATIVE OR SALT THEREOF AND ONE OR MORE COMPOUNDS SELECTED FROM beta-LACTAMASE INHIBITORY COMPOUND AND ANTIBACTERIAL COMPOUND OR SALTS THEREOF” (priority 2019, published 2022)
≈ marks a conversion by molar mass, not a printed value. Like-named read-outs stand apart in the source and are kept apart here.

Experiments:
Experiment in all cases: Antibacterial activity evaluation test, MIC by broth microdilution (CLSI)
Assay type in all cases: cell-based
[1] = system: AmpC-derepressed Pseudomonas aeruginosa mutant strain (S-3028)
Protocol: (§1) The minimum inhibitory concentration (MIC) was measured according to the Clinical and Laboratory Standards Institute (CLSI) standard method by using the following broth microdilution method.
(§2) As bacteria, a Pseudomonas aeruginosa strain ATCC27853, an AmpC-derepressed Pseudomonas aeruginosa mutant strain (S-3028), an IMP-1-containing Pseudomonas aeruginosa strain (S-2838), a VIM-2-containing Pseudomonas aeruginosa strain (S-3779), a GES-19 and GES-20-containing Pseudomonas aeruginosa strain (S-3759), a CTX-M-15-containing Escherichia coli strain (TK-1747), a KPC-2-containing Klebsiella pneumoniae strain (Y-995), an OXA-48-containing Klebsiella pneumoniae strain (Y-1062), and an NDM-1-containing Klebsiella pneumoniae strain (Y-1007) were used. The test bacterial cells that had been cultured overnight on a Mueller Hinton agar medium were scraped off, suspended at a density equivalent to 0.5 McFarland standard, and diluted 10-fold, thereby obtaining an inoculum. A cation-adjusted Mueller Hinton medium containing a test compound was inoculated with 0.005 mL of the inoculum, and the cells were cultured at 35° C. for 16 to 20 hours. The minimum drug concentration at which the growth of bacteria was not visually observed was defined as MIC (μg/mL).
(§3) An antibacterial activity evaluation test was performed in the same manner as in Test Example 1.

[2] = system: CTX-M-15-containing Escherichia coli strain (TK-1747)
Protocol: as §1, §2, §3

[3] = system: GES-19 and GES-20-containing Pseudomonas aeruginosa strain (S-3759)
Protocol: as §1, §2, §3

[4] = system: IMP-1-containing Pseudomonas aeruginosa strain (S-2838)
Protocol: as §1, §2, §3

[5] = system: KPC-2-containing Klebsiella pneumoniae strain (Y-995)
Protocol: as §1, §2, §3

[6] = system: NDM-1-containing Klebsiella pneumoniae strain (Y-1007)
Protocol: as §1, §2, §3

[7] = system: OXA-48-containing Klebsiella pneumoniae strain (Y-1062)
Protocol: as §1, §2, §3

[8] = system: Pseudomonas aeruginosa strain ATCC27853
Protocol: as §1, §2, §3

[9] = system: VIM-2-containing Pseudomonas aeruginosa strain (S-3779)
Protocol: as §1, §2, §3

[10] = Pseudomonas aeruginosa, ATCC27853

CC(C)(O/N=C(\C(=O)N[C@@H]1C(=O)N2C[C@@](C(=O)O)(N3CCN(NC(=O)C(=O)N(O)CCNC(=O)c4ccc(O)c(O)c4Cl)C3=O)S[C@H]12)c1csc(N)n1)C(=O)O [Example 104, (3R,5R,6R)-6-((Z)-2-(2-aminothiazol-4-yl)-2-(((2-carboxypropan-2-yl)oxy)imino)acetamido)-3-(3-(2-((2-(2-chloro-3,4-dihydroxybenzamido)ethyl)(hydroxy)amino)-2-oxoacetamido)-2-oxoimidazolidin-1-yl)-7-oxo-4-thia-1-azabicyclo[3.2.0]heptane-3-carboxylic acid] showed an MIC ([1]; Pseudomonas aeruginosa) of 2 µg/mL (≈ 2.37 µM), an MIC ([2]; Escherichia coli) of 1 µg/mL (≈ 1.19 µM) and an MIC ([3]; Pseudomonas aeruginosa) of 4 µg/mL (≈ 4.74 µM). It also gave an MIC ([4]; Pseudomonas aeruginosa) of 0.5 µg/mL (≈ 0.593 µM), an MIC ([5]; Klebsiella pneumoniae) of 2 µg/mL (≈ 2.37 µM) and an MIC ([6]; Klebsiella pneumoniae) of under 0.06 µg/mL. For the same compound, the MIC ([7]; Klebsiella pneumoniae) was 2 µg/mL (≈ 2.37 µM), the MIC ([8]; ATCC27853, Pseudomonas aeruginosa ATCC 27853, 35° C., 16 to 20 hours, read-out: MIC) was 2 µg/mL (≈ 2.37 µM) and the MIC ([9]; Pseudomonas aeruginosa) was 1 µg/mL (≈ 1.19 µM).
Work on CC[C@H](O/N=C(\C(=O)N[C@@H]1C(=O)N2C[C@@](C(=O)O)(N3CCN(NC(=O)C(=O)c4ccc(O)c(O)c4Cl)C3=O)S[C@H]12)c1csc(N)n1)C(=O)O [Example 105, (3R,5R,6R)-6-((Z)-2-(2-aminothiazol-4-yl)-2-(((S)-1-carboxypropoxy)imino)acetamido)-3-(3-(2-(2-chloro-3,4-dihydroxyphenyl)-2-oxoacetamido)-2-oxoimidazolidin-1-yl)-7-oxo-4-thia-1-azabicyclo[3.2.0]heptane-3-carboxylic acid] yielded an MIC ([1]; Pseudomonas aeruginosa) of under 0.06 µg/mL, an MIC ([2]; Escherichia coli) of 0.5 µg/mL (≈ 0.675 µM) and an MIC ([3]; Pseudomonas aeruginosa) of 0.5 µg/mL (≈ 0.675 µM). The MIC ([4]; Pseudomonas aeruginosa) was 0.25 µg/mL (≈ 0.337 µM), the MIC ([5]; Klebsiella pneumoniae) was 0.12 µg/mL (≈ 0.162 µM) and the MIC ([6]; Klebsiella pneumoniae) was under 0.06 µg/mL. For the same compound, the MIC ([7]; Klebsiella pneumoniae) was 0.5 µg/mL (≈ 0.675 µM), the MIC [8, 10] was 0.25 µg/mL (≈ 0.337 µM) and the MIC ([9]; Pseudomonas aeruginosa) was 0.25 µg/mL (≈ 0.337 µM).
Nc1nc(/C(=N/OC2(C(=O)O)CC2)C(=O)N[C@@H]2C(=O)N3C[C@@](C(=O)O)(N4CCN(NC(=O)CCNC(=O)C(=O)c5ccc(O)c(O)c5Cl)C4=O)S[C@H]23)c(Cl)s1 [Example 107, (3R,5R,6R)-6-((Z)-2-(2-amino-5-chlorothia-zol-4-yl)-2-((1-carboxy-cyclopropoxy)imino)-acetamido)-3-(3-(3-(2-(2-chloro-3,4-dihydroxy-phenyl)-2-oxoaceta-mido)proanamido)-2-oxoimidazolidin-1-yl)-7-oxo-4-thia-1-aza-bicyclo[3.2.0]heptane-3-carboxylic acid] showed an MIC ([1]; Pseudomonas aeruginosa S-3028, 35° C., 16 to 20 hours) of 2 µg/mL (≈ 2.37 µM), an MIC ([2]; Escherichia coli TK-1747, 35° C., 16 to 20 hours) of 0.25 µg/mL (≈ 0.296 µM) and an MIC ([3]; Pseudomonas aeruginosa S-3759, 35° C., 16 to 20 hours) of 0.5 µg/mL (≈ 0.592 µM). The MIC ([4]; Pseudomonas aeruginosa S-2838, 35° C., 16 to 20 hours) was 0.5 µg/mL (≈ 0.592 µM), the MIC ([5]; Klebsiella pneumoniae Y-995, 35° C., 16 to 20 hours) was 2 µg/mL (≈ 2.37 µM) and the MIC ([6]; Klebsiella pneumoniae Y-1007, 35° C., 16 to 20 hours) was under 0.06 µg/mL. It also gave an MIC ([7]; Klebsiella pneumoniae Y-1062, 35° C., 16 to 20 hours) of 0.25 µg/mL (≈ 0.296 µM), an MIC ([8]; Pseudomonas aeruginosa ATCC 27853, 35° C., 16 to 20 hours) of 0.25 µg/mL (≈ 0.296 µM) and an MIC ([9]; Pseudomonas aeruginosa S-3779, 35° C., 16 to 20 hours) of 0.25 µg/mL (≈ 0.296 µM).
Nc1nc(/C(=N/O[C@@H](CO)C(=O)O)C(=O)NC2C(=O)N3C[C@@](C(=O)O)(N4CCN(NC(=O)C(=O)c5ccc(O)c(O)c5Cl)C4=O)S[C@H]23)cs1 (stereo partly drawn) [Example 113, (3R,5R,6R)-6-((Z)-2-(2-aminothiazol-4-yl)-2-(((S)-1-carboxy-2-hydroxyethoxy)imino)-acetamido)-3-(3-(2-(2-chloro-3,4-dihydroxy-phenyl)-2-oxoaceta-mido)-2-oxoimidazol-idin-1-yl)-7-oxo-4-thia-1-azabicyclo[3.2.0]-heptane-3-carboxylic acid] gave an MIC ([1]; Pseudomonas aeruginosa) of 0.25 µg/mL (≈ 0.336 µM), an MIC ([2]; Escherichia coli) of under 0.06 µg/mL and an MIC ([3]; Pseudomonas aeruginosa) of 1 µg/mL (≈ 1.35 µM). For the same compound, the MIC ([4]; Pseudomonas aeruginosa) was 0.5 µg/mL (≈ 0.673 µM), the MIC ([5]; Klebsiella pneumoniae) was 0.12 µg/mL (≈ 0.161 µM) and the MIC ([6]; Klebsiella pneumoniae) was under 0.06 µg/mL. The MIC ([7]; Klebsiella pneumoniae) was 0.25 µg/mL (≈ 0.336 µM), the MIC [8, 10] was 4 µg/mL (≈ 5.38 µM) and the MIC ([9]; Pseudomonas aeruginosa) was 0.5 µg/mL (≈ 0.673 µM).
Work on CCC[C@H](O/N=C(\C(=O)NC1C(=O)N2C[C@@](C(=O)O)(N3CCN(NC(=O)C(=O)c4ccc(O)c(O)c4Cl)C3=O)S[C@H]12)c1csc(N)n1)C(=O)O (stereo partly drawn) [Example 115, (3R,5R,6R)-6-((Z)-2-(2-aminothiazol-4-yl)-2-(((S)-1-carboxy-butoxy)imino)aceta-mido)-3-(3-(2-(2-chloro-3,4-dihydroxy-phenyl)-2-oxoaceta-mido)-2-oxoimidazol-idin-1-yl)-7-oxo-4-thia-1-azabicyclo[3.2.0]-heptane-3-carboxylic acid] yielded an MIC ([1]; Pseudomonas aeruginosa) of 0.12 µg/mL (≈ 0.159 µM), an MIC ([2]; Escherichia coli) of 0.25 µg/mL (≈ 0.331 µM) and an MIC ([3]; Pseudomonas aeruginosa) of 0.5 µg/mL (≈ 0.662 µM). The MIC ([4]; Pseudomonas aeruginosa) was 1 µg/mL (≈ 1.32 µM), the MIC ([5]; Klebsiella pneumoniae) was 0.25 µg/mL (≈ 0.331 µM) and the MIC ([6]; Klebsiella pneumoniae) was under 0.06 µg/mL. For the same compound, the MIC ([7]; Klebsiella pneumoniae) was 1 µg/mL (≈ 1.32 µM), the MIC [8, 10] was 0.5 µg/mL (≈ 0.662 µM) and the MIC ([9]; Pseudomonas aeruginosa) was 0.5 µg/mL (≈ 0.662 µM).
